“Also recorded” adds a separate entry of the source. Square brackets hold non-standard residues; d marks the D form. Ends that are not written are not given here.
Experiments:
CD36 [1] = assay: CD36 immunostaining in isolated hearts after cold ischemic storage and warm reperfusion; set-up: species or system guinea pig; settings: 1 nM SS-31 or 100 nM SS-20 in St. Thomas solution, 18 h at 4° C., 90 min reperfusion at 34° C.
Procedure: Isolated guinea pig hearts were perfused with St. Thomas solution alone, or St. Thomas solution containing 1 nM SS-31 or 100 nM SS-20, for 3 min. and then stored in the same solution at 4° C. for 18 hours. After ischemic storage, hearts were reperfused with 34° C. Kreb-Henseleit solution for 90 min. Hearts freshly isolated from guinea pigs were used as controls.
The hearts were fixed in paraffin and sliced for immunostaining with an anti-CD36 rabbit polyclonal antibody. Two sections are shown for each treatment group. […] The “background” (FIGS. 12A and 12B) represents two sections from a normal non-ischemic heart that was not treated with the primary antibody. “Normal heart” (FIGS. 12C and 12D) represents two sections obtained from a non-ischemic heart.

[2] = test system: isolated guinea pig hearts; assay: Isolated hearts: lipid peroxidation, endothelial apoptosis and coronary flow after cold ischemia and warm reperfusion; settings: 1 nM SS-31 or 100 nM SS-20 in St. Thomas solution; for HNE staining (lipid peroxidation) in stored hearts / endothelial apoptosis in stored hearts / coronary flow restored, of pre-ischemic flow: 18 h at 4° C., 90 min reperfusion; for coronary flow restored, of pre-ischemic flow: pre-ischemic control = 100%; for coronary flow (in words): 18 h cold ischemia, warm reperfusion
Procedure: Guinea pig hearts were perfused with a cardioplegic solution (St. Thomas solution) alone or St. Thomas solution containing either 1 nM SS-31 or 100 nM SS-20 for 3 min. and then subjected to 18 hours of cold ischemia (4° C.). The hearts were then reperfused with Krebs Henseleit buffer at 34° C. for 90 min. Immunohistochemical analysis of 4-hydroxynonenol (HNE)-modified proteins in paraffin sections from tissue slices were performed by incubation with an anti-HNE antibody (Santa Cruz) and a fluorescent secondary antibody. […] HNE staining was reduced in hearts stored in SS-31 (FIG. 13C) or SS-20 (FIG. 13D).
Guinea pig heats were perfused with a cardioplegic solution (St. Thomas solution) alone or St. Thomas solution containing either 1 nM SS-31 or 100 nM SS-20 for 3 min. and then subjected to 18 hours of cold ischemia (4° C.). The hearts were then reperfused with Krebs Henseleit buffer at 34° C. for 90 min. After deparaffinization, sections were incubated with deoxynucleotidyl transferase (Tdt) with digoxigenin-dNTP for 1 hour. The reaction was stopped with terminating buffer. A fluorescent anti-digoxigenin antibody was then applied.
A significant improvement of coronary blood flow after prolonged cold ischemic storage and warm reperfusion occurred (FIG. 15). Guinea pigs hearts were perfused with a cardioplegic solution (St. Thomas solution) alone or St. Thomas solution containing either 1 nM SS-31 (FIG. 15A) or 100 nM SS-20) (FIG. 15B) for 3 min. and then subjected to 18 hours of cold ischemia (4° C.). The hearts were then reperfused with Krebs Henseleit buffer at 34° C. for 90 min.

diabetic mice = assay: Streptozotocin (STZ)-induced diabetic mice, renal damage; type: in vivo, CD-1 mice
Procedure: Streptozotocin (STZ) was used to induce diabetes in mice. Three groups of CD-1 mice were studied. Group I—no STZ treatment; Group II—STZ (50 mg/kg, ip) was given once a day for 5 d; Group III—STZ (50 mg/kg, ip) was given once a day for 5 d, and SS-31 (3 mg/kg, ip) was given once a day for 16 d. […] By week 3, blood glucose values were: Group I (10.6.noteq.0.27 mmol/L); Group II (24.5.noteq.1.15 mmol/L); Group III (21.3 1.48 mmol/L). Animals were sacrificed after 3 weeks and kidney tissues preserved for histopathology. Kidney sections were examined by Periodic Schiff (PAS) staining for renal tubular brush border.
In mice not treated with STZ, the renal brush border in the cortex was stained red with PAS (FIG. 16A, see white arrows).
Kidney sections were examined for apoptosis using the TUNEL assay. After deparaffinization, sections were incubated with deoxynucleotidyl transferase (Tdt) with digoxigenin-dNTP for 1 hour. The reaction was stopped with terminating buffer. A fluorescent anti-digoxigenin antibody was then applied.

[3] = test system: obstructed kidney after UUO; assay: Kidney damage after unilateral ureteral obstruction (HNE, TUNEL, ED1 macrophages, Masson's trichrome); type: in vivo, Sprague-Dawley rats; settings: rats, SS-31 1 mg/kg ip one day before UUO and daily for 14 days
Procedure: Rats were then killed, kidneys removed, embedded in paraffin and sectioned. Slides were incubated with anti-HNE rabbit IgG and a biotin-linked anti-rabbit IgG was used as secondary antibody. The slides were developed with DAB. Lipid peroxidation, which was increased by UUO, was reduced by SS-31 treatment (FIG. 8).
Rats were then killed, kidneys removed, embedded in paraffin and sectioned. To quantitate nuclei with fragmented DNA, the TUNEL assay were performed with in situ TUNEL kit (Intergen, Purchase, N.Y.). Slides were developed with DAB and counterstained with 10% hematoxylin.
Rats were treated with either saline (n=6) or SS-31 (1 mg/kg ip, n=6) one day prior to induction of UUO, and once a day for 14 days after UUO. Rats were then killed, kidneys removed, embedded in paraffin and sectioned. Slides were treated with monoclonal antibody for ED1 macrophage (1:75; Serotec). Horseradish-peroxidase-linked rabbit anti-mouse secondary antibody (Dako) was used for macrophage detection. Sections were then counterstained with 10% hematoxylin.
Rats were treated with either saline (n=6) or SS-31 (1 mg/kg ip, n=6) one day prior to induction of UUO, and once a day for 14 days after UUO. Rats were then killed, kidneys removed, embedded in paraffin and sectioned. Slides were stained with hematoxylin and eosin and Masson's trichome for interstitial fibrosis (blue stain).

CD36 [4] = assay: CD36 immunostaining on renal tubular cells after unilateral ureteral obstruction (UUO); type: in vivo, Sprague-Dawley rats; settings: rats, SS-31 1 mg/kg ip one day before UUO and daily for 14 days
Procedure: UUO was performed in Sprague-Dawley rats. The rats were treated with saline (ip, n=6) or SS-31 (1 mg/kg ip, n=6) one day prior to induction of UUO, and once a day for 14 days after UUO. Rats were killed, kidneys removed, embedded in paraffin and sectioned. The slides were treated with the anti-CD36 polyclonal IgG (Santa Cruz #sc-9154; 1:100 with blocking serum) at room temperature for 1.5 hours. The slides were then incubated with the second antibody conjugated with biotin (anti-rabbit IgG-G1; ABC kit, PK-6101) at room temperature for 30 min. The slides were then treated with avidin, developed with DAB and counterstained with 10% hematoxylin. The contralateral unobstructed kidney served as the control for each animal.

CD36 [5] = assay: oxLDL-induced CD36 mRNA expression in mouse peritoneal macrophages; type: cell-based
Procedure: CD36 expression is regulated at the transcriptional level by various cellular stimuli, including glucose and oxLDL. Macrophages were harvested from mice peritoneal cavity and culture overnight in the absence or presence of oxLDL (50 μg/ml) for 48 h.

[6] = test system: mouse peritoneal macrophages; assay: oxLDL-induced apoptosis of macrophages; type: cell-based; settings: SS-31 1 nM concurrent with oxLDL (oxLDL alone 32.8%, no oxLDL 6.7%)
Procedure: Incubation of macrophages with oxLDL increased apoptotic cells from 6.7% to 32.8%.

CD36 [7] = assay: CD36 protein expression by western blot in mouse peritoneal macrophages; type: cell-based; settings: P<0.01
Description: Other controls included CD36 expression from mouse heart (H) and macrophages obtained from CD36 knockout mice (KO). The amount of CD36 protein was normalized to β-actin.

[8] = test system: mouse peritoneal macrophages; assay: oxLDL-induced foam cell formation (oil red O) in macrophages; type: cell-based; settings: SS-31 1 μM, oxLDL 48 h
Description: Foam cell is indicated by oil red O which stains lipid droplets red.

CD36 [9] = assay: CD36 mRNA (real time PCR) in post-ischemic brain of wild-type mice; type: in vivo, mouse; settings: WT mice, SS-31 5 mg/kg ip at 0 and 6 h after 30 min ischemia
Procedure: Wild-type mice were given saline vehicle (Veh, i.p., n=6) or SS-31 (5 mg/kg, i.p., n=6) at 0 and 6 h after 30 min ischemia, and CD36 mRNA levels were determined using real time PCR.

[10] = test system: CD36 knock-out mice subjected to acute cerebral ischemia; assay: Acute cerebral ischemia in CD36 knockout mice; type: in vivo, mouse; settings: CD36 KO mice
Procedure: CD36 knockout (CD36 KO) mice were subjected to acute cerebral ischemia as described under Example 2. CD36 KO mice were given either saline vehicle (Veh) (ip, n=5) or SS-31 (2 mg/kg, i.p. n=5) at 0, 6, 24 and 48 h after 30 min ischemia.

[11] = test system: wild-type mice subjected to acute cerebral ischemia; assay: Acute cerebral ischemia (30 min middle cerebral artery occlusion) in wild-type mice; type: in vivo, mouse; settings: WT mice
Procedure: Cerebral ischemia was induced by occlusion of the right middle cerebral artery for 30 min. Wild-type (WT) mice were given either saline vehicle (Veh) (ip, n=19) or SS-31 (2 mg/kg or 5 mg/kg, ip, n=6) at 0, 6, 24 and 48 h after ischemia. Mice were killed 3 days after ischemia. Brains were removed, frozen, and sectioned. Brain sections were stained by the Nissl stain. Infarct volume and hemispheric swelling was determined using an image analyzer. Data were analyzed by one-way ANOVA with posthoc analysis.
(*P<0.05 compared to Veh).

[12] = SS-31 2 mg/kg ip at 0, 6, 24, 48 h, vs saline
[13] = SS-31 2 mg/kg or 5 mg/kg ip at 0, 6, 24, 48 h after ischemia, vs saline, P<0.05

## F[dR]FK-NH2 [SS-20]
CD36 [1]
  CD36 staining in stored hearts: significantly reduced; also recorded: did not show the upregulation of CD36 expression
[2]
  HNE staining (lipid peroxidation) in stored hearts: reduced
  endothelial apoptosis in stored hearts: Apoptotic cells were not observed
  coronary flow restored, of pre-ischemic flow: approximately 80%
  coronary flow (in words): preserves coronary flow

## D-Arg-2′6′Dmt-Lys-Phe-NH2 [SS-31]
Diabetic mice; Group III: STZ 50 mg/kg ip 5 d + SS-31 3 mg/kg ip daily 16 d (STZ alone 24.5, no STZ 10.6)
  blood glucose by week 3: 21.3 mmol/L
Diabetic mice; STZ mice, SS-31 3 mg/kg ip daily
  effect on blood glucose (in words): without affecting blood glucose
Diabetic mice; STZ mice, SS-31 3 mg/kg ip daily, 3 weeks
  architecture of the proximal renal tubules: architecture of the proximal renal tubules was preserved
Diabetic mice; STZ mice, SS-31 3 mg/kg ip daily, 3 weeks, 3 mg/kg
  apoptotic cells in proximal tubule (TUNEL): dramatically reduced apoptotic cells in the proximal tubule; also recorded: inhibit tubular cell apoptosis; also recorded: significantly reduced
CD36 [1]
  CD36 staining in stored hearts: significantly reduced; also recorded: did not show the upregulation of CD36 expression
[3]
  tubular dilation: Tubular dilation was also observed
[3]; P<0.001, 1 mg/kg
  number of apoptotic cells (TUNEL) in obstructed kidney: significantly reduced; also recorded: reduced tubular cell apoptosis
[3]; P<0.05, 1 mg/kg
  interstitial fibrosis in obstructed kidney: significantly less fibrosis; also recorded: reduced interstitial fibrosis
  macrophage infiltration (ED1) in obstructed kidney: significantly reduced; also recorded: reduced macrophage infiltration
[3]; vs saline, 1 mg/kg
  lipid peroxidation (HNE stain) in obstructed kidney: significantly less HNE stain; also recorded: reduces lipid peroxidation
CD36 [4]
  CD36 expression on tubular cells of obstructed kidney: significant reduction in CD36 expression; also recorded: suppresses the upregulation of CD36; also recorded: decreases CD36 expression
CD36 [5]; SS-31 10 nM or 1 μM, oxLDL 50 μg/ml, 48 h
  oxLDL-induced up-regulation of CD36 mRNA: abolished the up-regulation of CD36; also recorded: reduced oxLDL-induced CD36 mRNA expression
CD36 [5]; SS-31 alone, without oxLDL
  CD36 expression, peptide by itself: had no effect on CD36 expression
[2]
  HNE staining (lipid peroxidation) in stored hearts: reduced
  endothelial apoptosis in stored hearts: Apoptotic cells were not observed
  coronary flow restored, of pre-ischemic flow: approximately 80%
  coronary flow (in words): preserves coronary flow
[6]
  percentage of apoptotic cells induced by oxLDL: 20.8%
CD36 [7]; SS-31 1 μM concurrent with 25 μg/ml oxLDL, 48 h
  oxLDL-induced upregulation of CD36 protein expression: significantly inhibited the upregulation of CD36 protein expression; also recorded: reduced
CD36 [7]; SS-31 1 μM, no oxLDL, normalized to β-actin
  CD36 protein expression versus vehicle control: significantly reduced CD36 protein expression
[8]
  oxLDL-induced foam cell formation: prevented oxLDL-induced foam cell formation; also recorded: reduced
CD36 [9]
  CD36 mRNA in the ipsilateral brain: significantly reduced; also recorded: reduced CD36 mRNA expression
[10]; SS-31 2 mg/kg ip
  GSH depletion in the ipsilateral cortex: failed to further prevent GSH depletion; also recorded: did not reduce GSH depletion
[10]; [12]
  hemispheric swelling: no effect
  infarct volume: no effect in reducing infarct volume
[11]; SS-31 2 mg/kg ip at 0, 6, 24, 48 h
  depletion of GSH in the striatum: reduced by SS-31 treatment but did not reach statistical significance
[11]; SS-31 2 mg/kg ip at 0, 6, 24, 48 h, 2 mg/kg
  depletion of GSH in the ipsilateral cortex: significantly reduced; also recorded: reduced the decrease in reduced glutathione (GSH)
[11]; [13]
  hemispheric swelling: significant reduction; also recorded: reduced
  infarct volume: significant reduction in infarct volume; also recorded: reduced infarct volume

Source: patent publication US11447523B2, “Methods for reducing CD36 expression” (Cornell Research Foundation, Inc., priority 2005, dated 2022)
